Values of other authors as cited in paper PMC2150373, “Phase I study of the mitomycin C analogue BMS-181174” (British Journal of Cancer, 1998).

Test system: patients
Settings: clinical use of MMC, Rabadi et al, 1982, cited from earlier work

SMILES: CO[C@@]12[C@H](COC(N)=O)C3=C(C(=O)C(C)=C(N)C3=O)N1C[C@@H]1N[C@@H]12 [MMC, Mitomycin C]
- patients with a rise in serum creatinine (ref Martino et al, 1979, Ratanatharathom et al): 2%
- dose-limiting toxicity (ref Carter and Crooke, 1979): myelosuppression
